Laboratory results: ChEMBL document CHEMBL1201862, “PubChem BioAssay data set” (2004)
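1) Cells in 96-well plates. 2) Compound, 48 h, 5 concentrations. 3) Linear interpolation between surrounding doses. 4) Unreached endpoint = highest concentration. Abbreviation: GI50, concentration required for 50% inhibition of growth.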 The source made the active and inactive calls. Rule as the data show it: active = GI50 up to about 1.1 µM and inactive = higher.

Legend:
Test in all cases: NCI anticancer screen, dose series, 48 h
[1] = test system: A498
[2] = test system: HCC 2998
[3] = test system: RPMI-8226
[4] = test system: HOP-92
[5] = test system: MCF7
[6] = test system: LOX IMVI
[7] = test system: SK-MEL-2
[8] = test system: SNB-75
[9] = test system: CAKI-1
[10] = test system: SF-295
[11] = test system: A549
[12] = test system: RXF 393
[13] = test system: Malme-3M
[14] = test system: DU-145
[15] = test system: NCI-H226
[16] = test system: T47D
[17] = test system: ACHN
[18] = test system: SR
[19] = test system: HCT-15
[20] = test system: NCI/ADR-RES

| SMILES | GI50 [1] | GI50 [2] | GI50 [3] | GI50 [4] | GI50 [5] | GI50 [6] | GI50 [7] | GI50 [8] | GI50 [9] | GI50 [10] | GI50 [11] | GI50 [12] | GI50 [13] | GI50 [14] | GI50 [15] | GI50 [16] | GI50 [17] | GI50 [18] | GI50 [19] [µM] | GI50 [20] |
| --- | --- | --- | --- | --- | --- | --- | --- | --- | --- | --- | --- | --- | --- | --- | --- | --- | --- | --- | --- | --- |
| CCCCCCCCCCCCCCCC(=O)OCC1OC(OC)C2NP(=O)(N(CCCl)CCCl)OC1C2O (centres undefined) | 10.6 µM (inactive) | 2.54 µM (inactive) | 2.51 µM (inactive) | 0.822 µM (active) | 0.366 µM (active) | 1.28 µM (inactive) | 8.3 µM (inactive) | 2.91 µM (inactive) | 0.752 µM (active) | 4.48 µM (inactive) | 6.11 µM (inactive) | 1.68 µM (inactive) | 14.1 µM (inactive) | 7.41 µM (inactive) | 10.9 µM (inactive) | 2.73 µM (inactive) | 0.953 µM (active) | 0.0177 µM (active) | 3.14 |  |
| O=S(=O)(O)c1cc(S(=O)(=O)O)c2c(/N=N/c3ccccc3)c(O)ccc2c1 | > 100 µM (inactive) |  | > 100 µM (inactive) | > 100 µM (inactive) |  | > 100 µM (inactive) | > 100 µM (inactive) | > 100 µM (inactive) | > 100 µM (inactive) | > 100 µM (inactive) | > 100 µM (inactive) | > 100 µM (inactive) |  | > 100 µM (inactive) | > 100 µM (inactive) | > 100 µM (inactive) |  |  | > 100 | > 100 µM (inactive) |
| COc1ccccc1C(=O)Nc1ccc(Cl)c(C(=O)OC(C)C)c1 | > 50.9 µM (inactive) | > 63.7 µM (inactive) | 18.3 µM (inactive) | 42.3 µM (inactive) | 42 µM (inactive) | 43 µM (inactive) | 31.8 µM (inactive) | 35.4 µM (inactive) | > 67 µM (inactive) | 36.6 µM (inactive) | 40.2 µM (inactive) | 25 µM (inactive) | 4.45 µM (inactive) | 49.2 µM (inactive) | 47.4 µM (inactive) | 20.1 µM (inactive) | 16 µM (inactive) |  | 32.1 | 16.4 µM (inactive) |
| O=C(N/C(=C\c1ccccc1)C1Nc2ccccc2C(=O)O1)c1ccccc1 (centres undefined) | > 100 µM (inactive) | 19.8 µM (inactive) | 23.3 µM (inactive) | > 100 µM (inactive) | 45.8 µM (inactive) | 18.2 µM (inactive) | 22.5 µM (inactive) | 38.8 µM (inactive) | > 100 µM (inactive) | 37 µM (inactive) | 87.5 µM (inactive) | 23.6 µM (inactive) | 16.6 µM (inactive) | 54.1 µM (inactive) | 25.6 µM (inactive) | > 100 µM (inactive) | 39.5 µM (inactive) |  | 31.8 | 25.9 µM (inactive) |
| O=S1(=O)OCCOS(=O)(=O)C1C1c2ccccc2-c2ccccc21 | > 100 µM (inactive) | 29 µM (inactive) | 28.6 µM (inactive) | > 100 µM (inactive) | 39 µM (inactive) | 14.8 µM (inactive) | 70.3 µM (inactive) | 2.41 µM (inactive) | 29.7 µM (inactive) | 29 µM (inactive) | 40.8 µM (inactive) | 50.9 µM (inactive) | 56.2 µM (inactive) | 37.3 µM (inactive) | 26 µM (inactive) | 93.8 µM (inactive) | 27.2 µM (inactive) |  | 35.4 | 25.7 µM (inactive) |
| CCOC(=O)c1c(-c2ccc(Br)cc2)ccn1C | > 10 µM (inactive) | > 10 µM (inactive) | > 10 µM (inactive) |  | > 10 µM (inactive) | > 10 µM (inactive) | > 10 µM (inactive) | > 10 µM (inactive) | > 10 µM (inactive) | > 10 µM (inactive) | > 10 µM (inactive) | 4.65 µM (inactive) | > 10 µM (inactive) | > 10 µM (inactive) | > 10 µM (inactive) | > 10 µM (inactive) | > 10 µM (inactive) |  | > 10 | > 10 µM (inactive) |
